From patent publication US8426433B2, priority 2007, dated 2013) come the findings set out here.

Structures are written as SMILES.

The test system of this assay is clot growth in platelet-free plasma. The assay can be described thus: Clot growth rate in space (light scattering) in platelet-free plasma. The note with it: 1 mcM of the compound in normal plasma versus plasma control, FIG. 9-11. The format is biochemical. The source says:
The clot growth rate in space describes the dynamics of clotting, which is a process that develops over time and across space. This method measures light scattering to determine the size of the clot at different periods of time once clotting has begun. Clotting is activated in the system by an activator precisely localized in space without stirring. The activator was alternatively either a simple glass plate having a ground edge to cause contact activation on the internal path or fibroblast-coated polyethylene terephthalate films provided on the surface with a tissue factor to activate clotting on the external path. […]
Light scattering profiles corresponding to different time moments from the start of the experiment were obtained by processing the series of recorded images. […] The clot size in each frame was determined as the distance from the activator to the clot edge assumed to be the point where light scattering was half the maximum value. […]
The last output processing stage was calculating the clot growth rate on the basis of the light scattering profiles obtained. The clot size was assessed at each point of time as the distance of a respective light scattering profile from the activator (at half-point of the maximum profile height). […] The quasi-stationary growth rate of the clot was calculated from the inclination angle of the linear portion of the curve.

Consider `Cc1cc(OCC[n+]2ccc(N)cc2)cc(OS(=O)(=O)c2ccccc2Cl)c1.[I-]` [HC-025s-IOC, 4-amino-1-(2-(3-methyl-5-(2-chlorobenzenesulfonyloxy)phenoxy)ethyl)-pyridinium iodide], for which the “Spatial clot growth dynamics (clot size versus time)” value was “inhibits clotting”.
